Data published in patent US20090209548A1, “FORMULATION FOR STIMULATING HAIR GROWTH” (Pfizer Inc, priority 2004, published 2009).

Columns and labels:
[1] = In-vitro human cadaver skin permeation, Franz diffusion cell; type: in vitro ADME; conditions: for Mean Percentage of Radioactivity Recovered at 24 Hours, Dermis / Mean Percentage of Radioactivity Recovered at 24 Hours, Epidermis / Mean Percentage of Radioactivity Recovered at 24 Hours, Receptor / Mean Percentage of Radioactivity Recovered at 24 Hours, Surface / Mean Percentage of Radioactivity Recovered at 24 Hours, Total: Compound 0.96% w/v
Description: Experimentally, the flux can be determined by measuring the amount of drug permeation into the receptor compartment of a Franz cell over time. The cumulative drug permeated per cm^2 is than plotted against time and the steady state permeation rate (flux, J) is calculated from the slope of the linear portion of the curve according to Fick's 1st law of diffusion.
In Examples 2-5 infra, the cumulative amount of Compound permeated through the skin as amount per surface area (μg/cm^2) was plotted against time (hours). Flux (μg/cm^2/hr) was determined by calculating the slope of the linear portion of the permeation profile. Drawing III depicts such a calculation. Typical variance in measured flux of 10 replicate samples is about 30-50%. However, if the formulation provides low flux of the Compound, indicating poor permeation through the skin, the variance could be much higher than the typical 30-50%.
This methodology utilizes a device known as the Franz Diffusion Cell. A typical device is depicted in Drawing II. The test is carried out using the following general methodology. A sample of human cadaver skin is inserted in to the area labeled as skin. The skin should be oriented so that the stratum corneum is facing the Donor Compartment and the dermis is facing the Receptor Compartment. The Receptor Compartment will be filled with a predefined solution (based on solubility of test agent). A dose of test agent, in a defined volume, is inserted into the Donor Compartment so that it may come in contact with the skin sample and potentially diffuse thru the skin into the Receptor Compartment. Samples of solution are then withdrawn from Receptor Compartment at defined time points and the concentration of test agent is determined. The amount of test agent permeated per cm^2 of skin is plotted versus time and the flux of the test agent is calculated as described above. The reader's attention is directed to Example 2, which provides a more detailed discussion of this test.
As with any testing method, the results can vary depending upon how the test is carried out. […] Thus, as used in this application including the claims, any flux determination should be carried by controlling the following parameters: • 1) Apparatus—The apparatus should be a Franz Diffusion Cell. Each cell should have a cell volume of 5.4 to 5.5 ml. Ten (10) cells should be utilized per formulation (i.e. both the test formulation and the reference formulation). As is standard in the field, the results are reported as the mean. • 2) Skin—Skin samples used for both the test formulation and the reference formulation should be human cadaver skin obtained from a single donor, who is […], between the ages of 50 and 75 and is obtained from the subjects back. […] The surface area of the skin samples should be 0.635 cm^2 (internal diameter of opening of 9 mm). The donor compartment should be maintained at room temperature (see Table A for specifics). • 3) Testing—Testing should be carried out for 24 hours. Sample should be withdrawn at the initiation of testing, and 2, 4, 12, 16, and 24 hours after initiation of testing. The sample volume should be 0.5 ml. The Compound should be present at identical concentrations in both the test formulation and the reference formulation (w/v for liquids and w/w for semi-solids). This concentration should be equal to that used in the final dosage form (i.e., what is being developed for eventual human application). A dose volume of 10 μl/0.635 cm^2 should be used. • 4) Receptor Solution—0.1% (w/v) Brij-98 in Dulbecco's phosphate buffered saline, pit 6.9 (KH2PO4 14.7 mM and Na2HPO4 80.9 mM). • 5) Barrier Integrity—The barrier integrity of human cadaver donor skin is assessed to ensure that changes in flux are attributed to the formulation versus a faulty skin barrier (e.g., cut, scrape, lesion, etc). […] The receptor fluid is assayed for these compounds. […]

[2] = test system: hair growth cycle; conditions: animal studies; topical; co-pending application 60/544,116; cited from earlier work
[3] = Table 2, vehicle 63.5:20:8:7.5% w/w EtOH/PG/CPE-215/Water
[4] = Table 2, vehicle 70:30% w/w EtOH/PG
[5] = Table 3, vehicle 60:20:20% w/w EtOH/PG/IPM
[6] = Table 3, vehicle 63.5:20:8:7.5% w/w EtOH/PG/CPE-215/Water
[7] = Table 4, vehicle 60:20:20% w/w EtOH/PG/IPM, skin 1.03-1.19 mm
[8] = Table 4, vehicle 70:20:10% w/w EtOH/PG/IPM, skin 1.03-1.19 mm

Flux ([1]; Example 3, Compound 0.96% w/v in ethanol:propylene glycol:Cyclopentadecanolide:Water (63.5:20:8:7.5% w/w/w/w), skin 0.71-0.96 mm and 0.90-1.04 mm): 0.053±0.003 μg/cm^2/hr
Flux ([1]; Example 3, Compound 0.96% w/v in reference formulation (70% ethanol:30% propylene glycol w/w), skin 0.71-0.96 mm and 0.90-1.04 mm): 0.004±0.006 μg/cm^2/hr
Flux ([1]; Example 4, carrier ethanol:propylene glycol:Cyclopentadecanolide:Water (63.5:20:8:7.5% w/w/w/w), skin 0.71-0.96 mm and 0.90-1.04 mm): 0.022±0.007 μg/cm^2/hr
Flux ([1]; Example 4, carrier ethanol:propylene glycol:IPM (60:20:20% w/w/w), skin 0.71-0.96 mm and 0.90-1.04 mm): 0.017±0.008 μg/cm^2/hr
Flux ([1]; Example 5, carrier ethanol:propylene glycol:IPM (60:20:20% w/w/w), skin 1.03-1.19 mm): 0.011±0.003 μg/cm^2/hr
Flux ([1]; Example 5, carrier ethanol:propylene glycol:IPM (70:20:10% w/w/w), skin 1.03-1.19 mm): 0.007±0.003 μg/cm^2/hr
Flux ([1]; Example 6, Compound 1.86% w/v, carrier EtOH/PG/DMI (dimethyl isosorbide) (60:30:10% w/w)): 0.036±0.0336 μg/cm^2/hr
Flux ([1]; Example 6, Compound 1.86% w/v, carrier EtOH/PG/Miglyol 840 (50:30:20% w/w/w)): 0.11±0.007 μg/cm^2/hr
Flux ([1]; Example 6, Compound 1.86% w/v, carrier ethanol:propylene glycol:IPM (50:30:20% w/w/w)): 191±0.026 μg/cm^2/hr
Skin permeation as compared with the reference formulation ([1]; FIG. 4, carrier comprising a penetration enhancer (Cyclopentadecanolide) vs reference formulation): greatly enhanced
Mean Percentage of Radioactivity Recovered at 24 Hours, Dermis [1, 3]: 0.61%
Mean Percentage of Radioactivity Recovered at 24 Hours, Epidermis [1, 3]: 8.50%
Mean Percentage of Radioactivity Recovered at 24 Hours, Receptor [1, 3]: 0.56%
Mean Percentage of Radioactivity Recovered at 24 Hours, Surface [1, 3]: 84.77%
Mean Percentage of Radioactivity Recovered at 24 Hours, Total [1, 3]: 94.43%
Mean Percentage of Radioactivity Recovered at 24 Hours, Dermis [1, 4]: 0.06%
Mean Percentage of Radioactivity Recovered at 24 Hours, Epidermis [1, 4]: 2.53%
Mean Percentage of Radioactivity Recovered at 24 Hours, Receptor [1, 4]: 0.05%
Mean Percentage of Radioactivity Recovered at 24 Hours, Surface [1, 4]: 79.30%
Mean Percentage of Radioactivity Recovered at 24 Hours, Total [1, 4]: 81.94%
Mean Percentage of Radioactivity Recovered at 24 Hours, Dermis [1, 5]: 0.78%
Mean Percentage of Radioactivity Recovered at 24 Hours, Epidermis [1, 5]: 8.04%
Mean Percentage of Radioactivity Recovered at 24 Hours, Receptor [1, 5]: 0.14%
Mean Percentage of Radioactivity Recovered at 24 Hours, Surface [1, 5]: 79.28%
Mean Percentage of Radioactivity Recovered at 24 Hours, Total [1, 5]: 88.24%
Mean Percentage of Radioactivity Recovered at 24 Hours, Dermis [1, 6]: 0.76%
Mean Percentage of Radioactivity Recovered at 24 Hours, Epidermis [1, 6]: 8.71%
Mean Percentage of Radioactivity Recovered at 24 Hours, Receptor [1, 6]: 0.16%
Mean Percentage of Radioactivity Recovered at 24 Hours, Surface [1, 6]: 79.36%
Mean Percentage of Radioactivity Recovered at 24 Hours, Total [1, 6]: 88.99%
Mean Percentage of Radioactivity Recovered at 24 Hours, Dermis [1, 7]: 1.00%
Mean Percentage of Radioactivity Recovered at 24 Hours, Epidermis [1, 7]: 12.00%
Mean Percentage of Radioactivity Recovered at 24 Hours, Receptor [1, 7]: 0.07%
Mean Percentage of Radioactivity Recovered at 24 Hours, Surface [1, 7]: 73.00%
Mean Percentage of Radioactivity Recovered at 24 Hours, Total [1, 7]: 86.1%
Mean Percentage of Radioactivity Recovered at 24 Hours, Dermis [1, 8]: 1.04%
Mean Percentage of Radioactivity Recovered at 24 Hours, Epidermis [1, 8]: 12.27%
Mean Percentage of Radioactivity Recovered at 24 Hours, Receptor [1, 8]: 0.10%
Mean Percentage of Radioactivity Recovered at 24 Hours, Surface [1, 8]: 75.24%
Mean Percentage of Radioactivity Recovered at 24 Hours, Total [1, 8]: 88.66%
Compound: Cn1nc(O[C@@H]2c3cc(S(=O)(=O)c4cccc(O)c4)ccc3OC(C)(C)[C@@]2(C)O)ccc1=O [Compound, 6-[[(3S,4R)-3,4-dihydro-3-hydroxy-6-[(3-hydroxyphenyl)sulfonyl]-2,2,3-trimethyl-2H-1-benzopyran-4-yl]oxy]-2-methyl-3(2H)-pyridazinone]
Effect on the hair growth cycle [2]: alters the hair growth cycle by inducing anagen
